The source made the active and inactive calls. Rule as the data show it: actives have a measured IC50 and inactives only a lower limit.

Type in all cases: functional
The target of experiment [1] is T1, Sentrin-specific protease 6 (Homo sapiens, UniProt Q9GZR1).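 Also: Luminescence-based dose-response confirmatory assay of SENP6 inhibition, following up an ultra-high-throughput screen.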
T1 sequence (Q9GZR1 whole entry): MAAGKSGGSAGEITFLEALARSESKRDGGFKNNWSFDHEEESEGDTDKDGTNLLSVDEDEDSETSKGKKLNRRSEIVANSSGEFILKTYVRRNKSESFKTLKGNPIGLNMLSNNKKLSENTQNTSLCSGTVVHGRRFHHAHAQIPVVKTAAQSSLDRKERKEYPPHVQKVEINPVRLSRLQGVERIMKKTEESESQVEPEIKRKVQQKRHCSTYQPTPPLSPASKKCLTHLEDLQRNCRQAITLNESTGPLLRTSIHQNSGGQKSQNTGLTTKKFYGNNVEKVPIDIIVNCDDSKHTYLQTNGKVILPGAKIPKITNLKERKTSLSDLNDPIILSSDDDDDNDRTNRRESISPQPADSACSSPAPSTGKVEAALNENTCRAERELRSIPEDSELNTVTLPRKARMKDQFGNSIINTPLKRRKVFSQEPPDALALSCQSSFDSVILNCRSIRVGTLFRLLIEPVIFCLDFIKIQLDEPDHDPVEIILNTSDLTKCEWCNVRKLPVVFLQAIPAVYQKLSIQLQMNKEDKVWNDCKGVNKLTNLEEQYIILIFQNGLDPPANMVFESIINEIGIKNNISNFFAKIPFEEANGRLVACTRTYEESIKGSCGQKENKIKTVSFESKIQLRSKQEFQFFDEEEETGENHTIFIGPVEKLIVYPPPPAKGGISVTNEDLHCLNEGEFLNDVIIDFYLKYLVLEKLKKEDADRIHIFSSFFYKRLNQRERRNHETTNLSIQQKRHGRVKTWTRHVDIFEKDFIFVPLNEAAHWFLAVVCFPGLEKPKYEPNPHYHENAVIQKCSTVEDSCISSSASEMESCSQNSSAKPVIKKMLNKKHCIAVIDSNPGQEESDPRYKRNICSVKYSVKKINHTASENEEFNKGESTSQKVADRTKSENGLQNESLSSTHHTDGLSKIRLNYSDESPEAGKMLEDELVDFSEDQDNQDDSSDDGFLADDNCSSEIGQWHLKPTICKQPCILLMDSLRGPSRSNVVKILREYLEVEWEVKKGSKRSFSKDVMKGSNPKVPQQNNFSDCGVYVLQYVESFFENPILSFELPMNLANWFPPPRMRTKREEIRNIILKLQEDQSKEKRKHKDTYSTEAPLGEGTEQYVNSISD

The target of experiment [2] is T2, Sentrin-specific protease 8 (Homo sapiens, UniProt Q96LD8).
T2 sequence (Q96LD8 whole entry): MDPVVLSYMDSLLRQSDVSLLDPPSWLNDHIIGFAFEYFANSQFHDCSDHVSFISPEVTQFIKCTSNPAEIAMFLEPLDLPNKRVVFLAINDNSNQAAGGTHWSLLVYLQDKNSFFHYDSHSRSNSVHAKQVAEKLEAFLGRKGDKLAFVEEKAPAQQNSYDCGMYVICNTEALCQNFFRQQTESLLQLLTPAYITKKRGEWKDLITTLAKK

Experiment [3] has as its target T2, Sentrin-specific protease 8. Description: SENP8 protease inhibitors, SAR follow-up, biochemical, luminescence (AID 504501).
In another experiment the target is T3, Caspase-3 (Homo sapiens, UniProt P42574).
T3 sequence (P42574 whole entry): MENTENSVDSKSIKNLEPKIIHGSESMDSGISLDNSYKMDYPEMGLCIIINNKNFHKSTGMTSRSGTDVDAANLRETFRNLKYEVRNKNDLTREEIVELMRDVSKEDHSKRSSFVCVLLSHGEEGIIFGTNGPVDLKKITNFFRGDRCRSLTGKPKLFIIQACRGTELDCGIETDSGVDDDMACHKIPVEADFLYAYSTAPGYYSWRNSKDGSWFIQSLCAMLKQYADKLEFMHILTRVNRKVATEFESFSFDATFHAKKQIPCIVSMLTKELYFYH
The experiment is described as follows: SAR Analysis of small molecule inhibitors of Sentrin-specific proteases (SENPs) using a Caspase-3 Selectivity assay. [Related pubchem assays (depositor defined):AID2540, AID2599, AID434973, AID489001].

The target of experiment [4] is T4, Sentrin-specific protease 7 (Homo sapiens, UniProt Q9BQF6).
T4 sequence (Q9BQF6 whole entry): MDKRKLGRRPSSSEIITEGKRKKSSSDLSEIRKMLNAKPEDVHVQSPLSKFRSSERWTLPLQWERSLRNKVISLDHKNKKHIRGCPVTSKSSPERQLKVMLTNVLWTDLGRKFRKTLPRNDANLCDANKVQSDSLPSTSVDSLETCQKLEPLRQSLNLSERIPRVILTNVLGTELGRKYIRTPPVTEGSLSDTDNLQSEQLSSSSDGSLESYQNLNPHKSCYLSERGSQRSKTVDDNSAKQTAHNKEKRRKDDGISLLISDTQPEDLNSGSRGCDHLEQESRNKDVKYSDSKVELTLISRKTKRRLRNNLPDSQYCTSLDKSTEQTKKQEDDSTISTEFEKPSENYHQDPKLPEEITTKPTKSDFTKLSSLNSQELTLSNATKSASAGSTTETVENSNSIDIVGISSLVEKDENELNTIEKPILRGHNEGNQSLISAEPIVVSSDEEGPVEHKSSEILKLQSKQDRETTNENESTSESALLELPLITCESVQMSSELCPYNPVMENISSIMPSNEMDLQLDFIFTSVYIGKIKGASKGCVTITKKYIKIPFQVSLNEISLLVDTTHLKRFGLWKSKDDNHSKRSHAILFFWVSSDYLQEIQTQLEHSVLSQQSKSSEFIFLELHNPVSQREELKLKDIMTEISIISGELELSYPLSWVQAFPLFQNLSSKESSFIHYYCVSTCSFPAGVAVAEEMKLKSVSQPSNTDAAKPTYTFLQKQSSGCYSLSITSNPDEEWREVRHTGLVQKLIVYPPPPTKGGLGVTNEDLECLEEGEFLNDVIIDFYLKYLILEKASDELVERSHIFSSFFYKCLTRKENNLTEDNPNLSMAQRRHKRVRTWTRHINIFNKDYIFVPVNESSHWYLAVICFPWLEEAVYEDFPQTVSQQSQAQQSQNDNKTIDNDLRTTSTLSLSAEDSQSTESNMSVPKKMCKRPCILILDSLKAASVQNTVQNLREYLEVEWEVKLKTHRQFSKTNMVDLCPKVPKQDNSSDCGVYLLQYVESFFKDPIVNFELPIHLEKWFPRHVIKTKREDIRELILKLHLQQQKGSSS
The experiment is described as follows: SENP7 protease inhibitors, SAR follow-up, biochemical, luminescence (AID 504497).

As to `O=C(NN=c1c(=O)c2ccccc2c1=O)c1ccccc1`, the IC50 is 3.47 µM (active) in experiment [1]; > 100 µM (inactive) in experiment [2]; 19.8 µM (active) in experiment [3]; 51.8 µM (active) at Caspase-3; 12 µM (active) in experiment [4].

As a reminder, the IC50 is the midpoint of a concentration-inhibition curve.

The values above are taken from ChEMBL document CHEMBL1201862, “PubChem BioAssay data set” (2004).
